# Assay results taken from US5110976A, “Insecticidal composition comprising more than one active ingredient” (priority 1985, dated 1992).
# “Also recorded” adds a separate entry of the source.
# Columns and labels:
# Lucillia sericata = assay: Comparative contact test (Table 15); type: in vivo, sheep maggot fly (Lucillia sericata), imago; parameters: key: % mortality after 24 h, Abbott-corrected; conditions: 1440 min
# Procedure: (§1) The active ingredient is dissolved in a 1:2 mixture of oil and acetone; filter paper discs (Whatman No. 1, diameter 9 cm) are impregnated with the solutions of the corresponding stereoisomers and enantiomer-pairs, respectively. The acetone is allowed to evaporate, whereupon the insects are exposed to filter papers discs placed in Petri-dishes. Three parallels are used on each dose and 15 insects are placed into each Petri-dish. The percental mortality is determined after 24 hours. The corrected percent mortality is calculated by means of the Abbot Formula.
# (§2) The comparative test of Ia, Ib and a 40:60 mixture of Ia:Ib is carried out on bean weevil (Acanthoscelides obtectus), flour-beetle, (Tribolium confusum), house fly (Musca domestica) and sheep maggot fly (Lucillia sericata). The test method described is Example 41.
# house fly = assay: Topical LD50 on house fly (mg/kg); type: in vivo; conditions: Musca domestica, approximate, topically
# Excerpt: The said selectivity index of the enantiomer-pair Ia amounts to 50/0.45=111.
# In addition to the synergistic effect the composition of the present invention has a number of further advantages too and for this reason it is an outstanding product. It is very important that the compositions of the present invention are less toxical towards mammals than the hitherto known compositions of similar efficiency. […] The said selectivity index of Ia amounts to 50/0.45=111.
# Tribolium confusum [1] = assay: Contact test, mixtures of Ia and Ib of various ratio (Table 13); type: in vivo, flour beetle (Tribolium confusum); conditions: Tribolium confusum, 24 h
# Procedure: as §1
# In Table 13 the insecticidal effect of mixtures of enantiomer-pairs Ia and Ib of various ratio is shown on flour beetle (Tribolium confusum). The test method is that disclosed in Example 43.
# tribolium confusum [2] = assay: Comparative contact test (Table 15); type: in vivo, flour-beetle (Tribolium confusum), imago; conditions: 24 h
# Procedure: as §1, §2
# Tetranychus urticae = assay: Potter Tower spray on mite-infested leaves (Table 19); type: in vivo, mites (Tetranychus urticae); conditions: Tetranychus urticae, 24 h, mortality after 24 hours; read-out: approx. LD50
# Procedure: Leaves already infested with mites (Tetranychus urticae) were sprayed under Potter Tower. Mortality after 24 hours on the treated leaves was compared with the control.
# Colorado potato beetle = assay: Topical test on Colorado potato beetle (Table 14); type: in vivo, Colorado potato beetle (Leptinotersa decemlineata), imago
# Procedure: In Table 14 the activity on Colorado potato beetle is shown.
# The test materials are dissolved in 2-ethoxyethanol (Cellosolve). One 0.3 μl drop of the solution is applied to the abdominal sterna of the imago. The treatment is carried out by using 2 parallels and 10 insects for each dose. […]
# Musca domestica [3] = assay: Filter paper disc contact test (Table 11); type: in vivo, house fly (Musca domestica); conditions: Musca domestica, 24 h
# Procedure: In Table 1 the activity of various stereoisomers of cypermethrin on the house fly (Musca domestica) is shown.
# as §1
# Hyphantria cunea = assay: Topical test on fall webworm (Table 18); type: in vivo, fall wetworm (Hyphantria cunea), L7-L8 larvae; conditions: Hyphantria cunea, topical, 24 h
# Procedure: The active ingredients are dissolved in 2-ethoxy-ethanol and the solutions are applied in the form of 0.2 μl droplets onto the back of fall wetworm (Hyphantria cunea) of L7 -L8 larvae stage. The treated worms are placed on strawberry leaves in Petri-dishes. The test is carried out by using […], 2 parallels and 10 insects for each dose. The killed worms are counted after 24 hours and the percental mortality rate is calculated.
# Tribolium confusum [4] = assay: Contact test on Tribolium confusum (Table 12); type: in vivo
# Procedure: as §1
# It appears from Table 12 that the increased activity shown in Example 41 is due to the synergistic effect of the trans-isomers to Tribolium confusum.
# Musca domestica [5] = assay: Comparative contact test (Table 15); type: in vivo, house fly (Musca domestica), imago; conditions: 24 h
# Procedure: as §1, §2
# Acanthoscelides obtectus = assay: Comparative contact test (Table 15); type: in vivo, bean weevil (Acanthoscelides obtectus), imago; conditions: Acanthoscelides obtectus, 24 h
# Procedure: as §1, §2
# T. confusum = assay: Activity as function of time, toxic symptoms (Table 16); type: in vivo, flour beetle (T. confusum), imagos
# Procedure: as §1
# Activity of cypermethrin stereoisomer-pairs as function of time on flour beetle (T. Confusum).
# Flour beetle (T. confusum) imagos are exposed in Petri-dishes according to the method described in Example 43. For each dose 3 parallels are used and 15 animals are applied for each parallel test. In each point of time the insects lying on their backs are counted and the percental results are expressed in Table 16.
smiles,measurement,setting,value
CC1(C)[C@H](C(=O)O[C@H](C#N)c2cccc(Oc3ccccc3)c2)[C@@H]1C=C(Cl)Cl (relative stereo) [Ia],mortality,Lucillia sericata; 0.02 mg/disc,0
same,mortality,Lucillia sericata; 0.07 mg/disc,30
same,mortality,Lucillia sericata; 0.22 mg/disc,29
same,mortality,Lucillia sericata; 0.67 mg/disc,57
same,mortality,Lucillia sericata; 2.0 mg/disc,60
same,mortality,Lucillia sericata; 6.0 mg/disc,65
same,LD50,house fly,~0.45 mg/kg
same,mortality at 60 µg/disc,Tribolium confusum [1]; 0.06 mg/disc,14%
same,mortality at 250 µg/disc,Tribolium confusum [1]; 0.25 mg/disc,54%
same,mortality at 20 µg/disc,Tribolium confusum [1]; 0.02 mg/disc,0%
same,mortality at 1000 µg/disc,Tribolium confusum [1]; 1.00 mg/disc,100%
same,mortality at 20 µg/disc,tribolium confusum [2]; 0.02 mg/disc,0%
same,mortality at 70 µg/disc,tribolium confusum [2]; 0.07 mg/disc,18%
same,mortality at 220 µg/disc,tribolium confusum [2]; 0.22 mg/disc,51%
same,mortality at 670 µg/disc,tribolium confusum [2]; 0.67 mg/disc,100%
same,mortality at 2000 µg/disc,tribolium confusum [2]; 2.0 mg/disc,100%
same,mortality at 6000 µg/disc,tribolium confusum [2]; 6.0 mg/disc,100%
same,LC50,Tetranychus urticae,~0.056 µg/mL
same,mortality at 0.05 µg/beetle,"Colorado potato beetle; Leptinotarsa decemlineata, topical, read-out: 24 hours' mortality %, 0.05 μg/beetle",50%
same,mortality at 0.1 µg/beetle,"Colorado potato beetle; Leptinotarsa decemlineata, topical, read-out: 24 hours' mortality %, 0.10 μg/beetle",55%
same,mortality at 0.2 µg/beetle,"Colorado potato beetle; Leptinotarsa decemlineata, topical, read-out: 24 hours' mortality %, 0.20 μg/beetle",75%
same,mortality at 0.4 µg/beetle,"Colorado potato beetle; Leptinotarsa decemlineata, topical, read-out: 24 hours' mortality %, 0.40 μg/beetle",80%
same,comparative activity,Colorado potato beetle; imago of Colorado potato beetle,more active than Ib
same,mortality at 40 µg/disc,Musca domestica [3]; 0.04 mg/disc,44%
same,mortality at 110 µg/disc,Musca domestica [3]; 0.11 mg/disc,84%
same,mortality at 330 µg/disc,Musca domestica [3]; 0.33 mg/disc,100%
same,mortality at 1000 µg/disc,Musca domestica [3]; 1.00 mg/disc,100%
same,mortality at 3000 µg/disc,Musca domestica [3]; 3.00 mg/disc,100%
same,mortality at 0.023 µg/disc,Hyphantria cunea; 0.023 (μg/disc),40%
same,mortality at 0.047 µg/disc,Hyphantria cunea; 0.047 (μg/disc),60%
same,mortality at 0.094 µg/disc,Hyphantria cunea; 0.094 (μg/disc),65%
same,mortality at 0.188 µg/disc,Hyphantria cunea; 0.188 (μg/disc),80%
same,mortality at 0.375 µg/disc,Hyphantria cunea; 0.375 (μg/disc),90%
same,mortality at 330 µg/disc,"Tribolium confusum [4]; Tribolium confusum, 24 h, 0.33 mg/disc",65%
same,mortality at 1000 µg/disc,"Tribolium confusum [4]; Tribolium confusum, 24 h, 1.00 mg/disc",94%
same,mortality at 3000 µg/disc,"Tribolium confusum [4]; Tribolium confusum, 24 h, 3.00 mg/disc",100%
same,synergism between the members of the enantiomer-pair,Tribolium confusum [4]; in vivo,does not take place; also recorded: no similar synergism takes place
same,mortality at 20 µg/disc,Musca domestica [5]; 0.02 mg/disc,36%
same,mortality at 70 µg/disc,Musca domestica [5]; 0.07 mg/disc,63%
same,mortality at 220 µg/disc,Musca domestica [5]; 0.22 mg/disc,88%
same,mortality at 670 µg/disc,Musca domestica [5]; 0.67 mg/disc,100%
same,mortality at 2000 µg/disc,Musca domestica [5]; 2.0 mg/disc,100%
same,mortality at 6000 µg/disc,Musca domestica [5]; 6.0 mg/disc,100%
same,mortality at 20 µg/disc,Acanthoscelides obtectus; 0.02 mg/disc,10%
same,mortality at 70 µg/disc,Acanthoscelides obtectus; 0.07 mg/disc,37%
same,mortality at 220 µg/disc,Acanthoscelides obtectus; 0.22 mg/disc,63%
same,mortality at 670 µg/disc,Acanthoscelides obtectus; 0.67 mg/disc,95%
same,mortality at 2000 µg/disc,Acanthoscelides obtectus; 2.0 mg/disc,100%
same,mortality at 6000 µg/disc,Acanthoscelides obtectus; 6.0 mg/disc,100%
same,% of insects showing toxic symptoms,T. confusum; 30 minutes,0%
same,% of insects showing toxic symptoms,"T. confusum; 30 minutes, 0.33 mg/disc",0%
same,% of insects showing toxic symptoms,"T. confusum; 30 minutes, 1.00 mg/disc",0%
same,% of insects showing toxic symptoms,"T. confusum; 30 minutes, 3.00 mg/disc",33%
same,% of insects showing toxic symptoms,T. confusum; 60 minutes,0%
same,% of insects showing toxic symptoms,"T. confusum; 60 minutes, 0.33 mg/disc",0%
same,% of insects showing toxic symptoms,"T. confusum; 60 minutes, 1.00 mg/disc",16%
same,% of insects showing toxic symptoms,"T. confusum; 60 minutes, 3.00 mg/disc",88%
same,% of insects showing toxic symptoms,T. confusum; 120 minutes,0%
same,% of insects showing toxic symptoms,"T. confusum; 120 minutes, 0.33 mg/disc",14%
same,% of insects showing toxic symptoms,"T. confusum; 120 minutes, 1.00 mg/disc",66%
same,% of insects showing toxic symptoms,"T. confusum; 120 minutes, 3.00 mg/disc",100%
same,% of insects showing toxic symptoms,T. confusum; 180 minutes,10%
same,% of insects showing toxic symptoms,"T. confusum; 180 minutes, 0.33 mg/disc",49%
same,% of insects showing toxic symptoms,"T. confusum; 180 minutes, 1.00 mg/disc",100%
same,% of insects showing toxic symptoms,"T. confusum; 180 minutes, 3.00 mg/disc",100%
